In paper PMC6385854, “Structural insights reveal a recognition feature for tailoring hydrocarbon stapled-peptides against the eukaryotic translation initiation factor 4E protein” (Chemical Science, 2019):
Read-outs that look alike come from different tables or passages of the source. Numbered stars: 1 amine (or outer) side, 2 acyl side, 3 side chain; on linkers, the order of the positions; unused ones are H or OH. Bridge positions count the residues as written; N and C are the ends. Square brackets hold non-standard residues; d marks the D form. Peptide text beside a SMILES is read from it. ξ: configuration not given here. ξαMeNle(6-ylidene) = CC(CCCC=[*:3])(N[*:1])C(=O)[*:2]; R5 = C=CCCC[C@@](C)(N)C(=O)O; S5 = C=CCCC[C@](C)(N)C(=O)O

Experiments:
eIF4E = conditions: small molecule inhibitor of the eIF4E/eIF4G interaction; cited from earlier work
Excerpt: We have previously used structure-based rational design and optimization strategies to develop the first generation of hydrocarbon stapled-peptides against eIF4E.[20] These are the only compounds currently reported in the literature that are able to bind to the protein-binding interface of eIF4E with nanomolar affinity. […] Moreover, it was recently shown that 4EGI-1 binds to a non-canonical site on eIF4E and allosterically regulates the binding prop ... || The previously optimized 12mer stapled-peptide (sTIP-04: ^1KKRYSR*QLL*L^12)[20] (Fig. 1) was used as a template for the derivation of two different i, i + 4 hydrocarbon stapled-peptides: (i) (sTIP-05: ^1KKRYSR*QLL*F^12) with an L12F substitution at the C-terminus and, (ii) (sTIP-06: ^1RIIYSR*QLL*L^12) with an “RII^3” substitution at the N-terminus, based on the 4EBP protein epitope.[12] These derivatives were designed to incorporate different chemical features with the anticipation to induce favorable cellular activity. Both peptides were synthesized and their binding affinity for eIF4E was de ...

[1] = molecular target: T1, Human recombinant eIF4E protein (Homo sapiens, UniProt P06730); experiment: Surface plasmon resonance binding of stapled-peptides to immobilized eIF4E; conditions: SPR; for kon: eIF4E (His tag or w/o tag) amine-coupled on CM5 chip, saturated with m7GTP, peptides 3 μM to 1.372 nM, 60 s injection, 120 s dissociation
T1 construct: V28-V217; made in house; host or cells: Escherichia coli BL21 (DE3)
Protocol: Human recombinant eIF4E protein with His tag (eIF4E-His) and without tag (eIF4E w/o tag) were separately immobilized on a CM5 sensor chip through amine coupling using the same protocol. Each flow cell of a CM5 sensor chip was first activated by a 7 min injection (10 μl min^–1) of freshly prepared 1 : 1 50 mM NHS : 200 mM EDC. Diluted eIF4E in NaAc (pH 5.0), with m^7GTP present in ≥2 : 1 ratio to saturate eIF4E, was injected over the sensor chip surface at a flow rate of 10 μl min^–1. The remaining active coupling sites were blocked with a 7 min injection of 1 M ethanolamine at 10 μl min^–1. The immobilization level is ∼2500 RU for eIF4E w/o tag and ∼5000 RU for eIF4E-His separately. Running buffer for immobilization was HBS-EP+ (10 mM HEPES, 150 mM NaCl, 3 mM EDTA, 0.05% surfactant P20).
Before measurement, the system was primed with assay running buffer HBS-EP+ (10 mM HEPES, 150 mM NaCl, 3 mM EDTA, 0.05% surfactant P20), with 1 mM DTT and 3% DMSO. Peptides were prepared by 3-fold dilution from high concentration to low concentration (3 μM to 1.372 nM). Peptides at increasing concentrations were injected over the chip surface for 60 s. The exposure was followed by a dissociation phase of 120 s. The flow rate was 30 μl min^–1. Surface regeneration was done using 2 M NaCl 30 s at 30 μl min^–1. Each reaction cycle ended with 50% DMSO extra wash. The solvent correction curve was setup by adding varying amounts of 100% DMSO to 1.03× running buffer to generate a range of DMSO solutions (2.000%, 2.286%, 2.571%, 2.857%, 3.143%, 3.429%, 3.714% and 4.000% respectively). After removing reference (blank buffer) signal and adding solvent correction, kinetics and/or steady-state parameters were calculated with Biacore T200 evaluation software ver. 3.0.

[2] = Biacore T200, HBS-EP+ with 1 mM DTT, 3% DMSO, mean ± SEM from at-least two independent experiments, SEM, read-out: k on
[3] = Biacore T200, eIF4E on CM5 chip, m7GTP, HBS-EP+ with 1 mM DTT, 3% DMSO, mean ± SEM from at-least two independent experiments, SEM, read-out: K D, binding affinity (kinetic KD) measured as a ratio of koff/kon
[4] = Biacore T200, eIF4E on CM5 chip, m7GTP, HBS-EP+ with 1 mM DTT, 3% DMSO, mean ± SEM from at-least two independent experiments, SEM, read-out: k off
[5] = mean ± SEM from at-least two independent experiments
[6] = mean ± SEM from at-least two independent experiments, SEM
[7] = Biacore T200, HBS-EP+ with 1 mM DTT, 3% DMSO, mean ± SEM from at-least two independent experiments, SEM
[8] = Biacore T200, eIF4E on CM5 chip, m7GTP, HBS-EP+ with 1 mM DTT, 3% DMSO, mean ± SEM from at-least two independent experiments, SEM
[9] = Biacore T200, eIF4E on CM5 chip, m7GTP, HBS-EP+ with 1 mM DTT, 3% DMSO, mean ± SEM from at-least two independent experiments, read-out: K D, binding affinity (kinetic KD) measured as a ratio of koff/kon

T1 sequence (P06730 28-217): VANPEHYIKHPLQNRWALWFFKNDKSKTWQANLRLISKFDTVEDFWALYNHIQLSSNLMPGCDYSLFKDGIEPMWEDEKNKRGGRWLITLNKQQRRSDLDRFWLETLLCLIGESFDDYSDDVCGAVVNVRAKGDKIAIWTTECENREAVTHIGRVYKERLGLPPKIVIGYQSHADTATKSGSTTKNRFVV

| Compound | kon [1, 2] | Kd [1, 3] | koff [1, 4] | RT, Residence Time measured as 1/koff [1, 5] | RT, Residence Time measured as 1/koff [1, 6] | kon [1, 7] | K D, binding affinity (kinetic KD) measured as a ratio of koff/kon [1, 8] | koff [1, 8] | further results |
| --- | --- | --- | --- | --- | --- | --- | --- | --- | --- |
| O=C(O)C(Cc1ccccc1[N+](=O)[O-])=NNc1nc(-c2ccc(Cl)c(Cl)c2)cs1 (mixture of isomers) [Peptide 4EGI-1, 4EGI-1] | – | – | – | – | – | – | – | – | Affinity for eIF4E (eIF4E): micromolar range |
| O=C(O)c1ccc(N2C(=O)/C(=C\c3ccc(-c4ccc([N+](=O)[O-])cc4)o3)C=C2c2ccccc2)cc1 [Peptide 4E1RCat, 4E1RCat] | – | – | – | – | – | – | – | – | Affinity for eIF4E (eIF4E): micromolar range |
| CC(=O)N[C@@H](CCCCN)C(=O)N[C@@H](CCCCN)C(=O)N[C@@H](CCCNC(=N)N)C(=O)N[C@@H](Cc1ccc(O)cc1)C(=O)N[C@@H](CO)C(=O)N[C@@H](CCCNC(=N)N)C(=O)N[C@]1(C)CCCC=CCCC[C@](C)(C(=O)N[C@@H](Cc2ccccc2)C(N)=O)NC(=O)[C@H](CC(C)C)NC(=O)[C@H](CC(C)C)NC(=O)[C@H](CCC(N)=O)NC1=O [sTIP-05] (Ac-KKRYSR[R5]QLL[R5]F-NH2; staple 7-11) | 1.5e+07 M⁻¹ s⁻¹ | 6.6 ± 0.7 nM | 0.094 ± 8e-05 s⁻¹ | 10 s | 10.8 ± 0.9 s | – | – | – | – |
| CC(=O)N[C@@H](CCCCN)C(=O)N[C@@H](CCCCN)C(=O)N[C@@H](CCCNC(=N)N)C(=O)N[C@@H](Cc1ccc(O)cc1)C(=O)N[C@@H](CO)C(=O)N[C@@H](CCCNC(=N)N)C(=O)N[C@@]1(C)CCCC=CCCC[C@@](C)(C(=O)N[C@@H](Cc2ccccc2)C(=O)N[C@@H](Cc2c[nH]c3ccccc23)C(N)=O)NC(=O)[C@H](CC(C)C)NC(=O)[C@H](CC(C)C)NC(=O)[C@H](CCC(N)=O)NC1=O [sTIP-07] (Ac-KKRYSR[S5]QLL[S5]FW-NH2; staple 7-11) | 650000 ± 3e+09 M⁻¹ s⁻¹ | 42.5 ± 0.5 nM | 0.028 ± 1e-05 s⁻¹ | – | 36.3 ± 1.0 s | – | – | – | – |
| CC(=O)N[C@@H](CCCCN)C(=O)N[C@@H](CCCCN)C(=O)N[C@@H](CCCNC(=N)N)C(=O)N[C@@H](Cc1ccc(O)cc1)C(=O)N[C@@H](CO)C(=O)N[C@@H](CCCNC(=N)N)C(=O)N[C@@]1(C)CCCC=CCCC[C@@](C)(C(=O)N[C@@H](Cc2ccccc2)C(=O)N[C@@H](CCCNC(=N)N)C(=O)N[C@@H](CCCNC(=N)N)C(=O)N[C@@H](CCCNC(=N)N)C(N)=O)NC(=O)[C@H](CC(C)C)NC(=O)[C@H](CC(C)C)NC(=O)[C@H](CCC(N)=O)NC1=O [sTIP-09] (Ac-KKRYSR[S5]QLL[S5]FRRR-NH2; staple 7-11) | 2.2e+06 ± 3e+11 M⁻¹ s⁻¹ | 7.8 ± 1.9 nM | 0.016 ± 3e-05 s⁻¹ | 68 s | 68.8 ± 13.8 s | – | – | – | – |
| CC(=O)N[C@@H](CCCCN)C(=O)N[C@@H](CCCCN)C(=O)N[C@@H](CCCNC(=N)N)C(=O)N[C@@H](Cc1ccc(O)cc1)C(=O)N[C@@H](CO)C(=O)N[C@@H](CCCNC(=N)N)C(=O)N[C@@H](CCC(=O)O)C(=O)N[C@@H](CCC(N)=O)C(=O)N[C@@H](CC(C)C)C(=O)N[C@@H](CC(C)C)C(=O)N[C@@]1(C)CCCC=CCCC[C@@](C)(C(N)=O)NC(=O)[C@H](CCCNC(=N)N)NC(=O)[C@H](CCC(N)=O)NC(=O)[C@H](Cc2ccccc2)NC1=O [sTIP-10] (Ac-KKRYSREQLL[S5]FQR[S5]-NH2; staple 11-15) | 6.6e+06 ± 1e+11 M⁻¹ s⁻¹ | 4.3 ± 0.4 nM | 0.026 ± 5e-05 s⁻¹ | 39 s | 39.7 ± 3.1 s | – | – | – | – |
| CC(=O)N[C@@H](CCCNC(=N)N)C(=O)N[C@@H](Cc1ccc(O)cc1)C(=O)N[C@@H](CO)C(=O)N[C@@H](CCCNC(=N)N)C(=O)NC1(C)CCCC=CCCCC(C)(C(=O)N[C@@H](Cc2ccccc2)C(N)=O)NC(=O)[C@H](CC(C)C)NC(=O)[C@H](CC(C)C)NC(=O)[C@H](CCC(N)=O)NC1=O (some centres unmarked) [sTIP-12] (Ac-RYSR[ξαMeNle(6-ylidene)]QLL[ξαMeNle(6-ylidene)]F-NH2; staple 5-9) | 420000 ± 1.9e+10 M⁻¹ s⁻¹ | 397 ± 131 nM | 0.14 ± 0.002 s⁻¹ | – | 7.1 ± 1.0 s | – | – | – | – |
| CC(=O)N[C@@H](Cc1ccc(O)cc1)C(=O)N[C@@H](CO)C(=O)N[C@@H](CCCNC(=N)N)C(=O)NC1(C)CCCC=CCCCC(C)(C(=O)N[C@@H](Cc2ccccc2)C(N)=O)NC(=O)[C@H](CC(C)C)NC(=O)[C@H](CC(C)C)NC(=O)[C@H](CCC(N)=O)NC1=O (some centres unmarked) [sTIP-13] (Ac-YSR[ξαMeNle(6-ylidene)]QLL[ξαMeNle(6-ylidene)]F-NH2; staple 4-8) | – | – | – | – | – | – | – | – | Kd ([1]; Binding affinity estimated (micromolar range), range over two independent experiments): 4000 to 36000 nM; Kd ([1]; sensogram traces Fig. S2 E, F, experiment 1, read-out: Binding affinity estimated, first of two independent SPR experiments): 4000 nM; Kd ([1]; sensogram traces Fig. S2 E, F, experiment 2, read-out: Binding affinity estimated, second of two independent SPR experiments): 36000 nM |
| CC(=O)N[C@@H](CCCNC(=N)N)C(=O)N[C@@H](Cc1ccc(O)cc1)C(=O)N[C@@H](CO)C(=O)N[C@@H](CCCNC(=N)N)C(=O)N[C@@]1(C)CCCC=CCCC[C@@](C)(C(=O)N[C@@H](CC(C)C)C(=O)N[C@@H](Cc2ccccc2)C(=O)N[C@@H](CCCNC(=N)N)C(N)=O)NC(=O)[C@H](CC(C)C)NC(=O)[C@H](CC(C)C)NC(=O)[C@H](CCC(N)=O)NC1=O [sTIP-14] (Ac-RYSR[S5]QLL[S5]LFR-NH2; staple 5-9) | 340000 ± 1.6e+10 M⁻¹ s⁻¹ | 195 ± 49.7 nM | 0.058 ± 0.00014 s⁻¹ | – | 18.3 ± 4.5 s | – | – | – | Improvement in KD over sTIP-12 ([1]; relative to sTIP-12): 2 fold; Reduction in rate of dissociation (koff) over sTIP-12 ([1]; relative to sTIP-12): 2 fold |
| Ac-KRYSR*QLL*F-NH2 (sidechain bridge or staple) [sTIP-11, sTIP-05 with K1 deleted] | – | – | – | – | 2.3 ± 0.6 s | 2.3 ± 0.9 × 10^7 M^–1 s^–1 | 21.9 ± 3.8 nM | 4.6 ± 1.2 × 10^–1 s^–1 | Binding to eIF4E in words (effect of N-terminal deletion from sTIP-05) ([1]; sequential deletion of the 1KKR3 sequence): little effect on binding |
| Ac-RIIYSR*QLL*L&-NH2 (sidechain bridge or staple) [sTIP-08, 13mer stapled-peptide, sTIP-06 extended with Lys(ButPhI)] | – | – | – | – | 35.5 ± 1.3 s | 6.2 ± 0.2 × 10^5 M^–1 s^–1 | 45.2 ± 0.6 nM | 2.8 ± 0.1 × 10^–2 s^–1 | – |
| Ac-RIIYSR*QLL*L-NH2 (sidechain bridge or staple) [sTIP-06] | – | – | – | 6 s | 6.0 ± 2.4 s | 2.7 ± 0.7 × 10^8 M^–1 s^–1 | 0.8 ± 0.1 nM | 2.2 ± 0.8 × 10^–1 s^–1 | Kd [1, 9]: 0.8 nM |
| Ac-RYSREQLL*FQR*-NH2 (sidechain bridge or staple) [sTIP-15] | – | – | – | – | 6.7 ± 4.1 s | 4.2 ± 2.3 × 10^6 M^–1 s^–1 | 54.8 ± 6.4 nM | 2.4 ± 1.5 × 10^–1 s^–1 | Kd [1, 9]: 54 nM; Improvement in KD over sTIP-12 ([1]; relative to sTIP-12): 7 fold; Improvement in rate of association (kon) over sTIP-12 ([1]; relative to sTIP-12): 10 fold |
